# From US10278873B2, “Absorbent article having a domed section and method of manufacturing same” (UNICHARM CORPORATION, priority 2011, dated 2019)
# Assay: Surface tension of blood containing blood modifying agent, pendant drop method (Example 7)
# Conditions: 0.10 mass % in sheep defibrinated blood; 35° C.
# Procedure: The surface tension of blood containing a blood modifying agent was measured by the pendant drop method, using a Drop Master500 contact angle meter by Kyowa Interface Science Co., Ltd. The surface tension was measured after adding a prescribed amount of blood modifying agent to sheep defibrinated blood, and thoroughly shaking.
# The measurement was accomplished automatically with a device, and the […] γ was determined by the following formula (see FIG. 98). γ=g×ρ×(de)^2×1/H
# The density ρ was measured at the temperatures listed in Table 5, according to JIS K 2249-1995, “Density test methods and density/mass/volume conversion tables”, “5. Vibrating density test method”.
# The measurement was accomplished using a DA-505 by Kyoto Electronics Co., Ltd.
smiles,measurement,value
"CCCCCCCCCCCCOC(=O)CCCCCCCCCCC [No. 2-18, Ester of dodecanoic acid (C12) and dodecyl alcohol (C12)]",Surface tension (mN/m),58.8 mN/m
